Measured values published in patent US5843889A, “Glycopeptide antibiotic derivatives” (Eli Lilly and Company, priority 1997, dated 1998).
Converted amounts (≈) assume the structure as drawn.

Tests used:
[1] = tested on: Entercoccus faecalis 2041; assay: MIC, standard broth micro-dilution assay; format: cell-based
Description: (§1) The formula I compounds have in vitro and in vivo activity against Gram-positive pathogenic bacteria. The MIC's were determined using a standard broth micro-dilution assay.

[2] = tested on: Entercoccus gallinarum 245; assay: MIC, standard broth micro-dilution assay; format: cell-based
Description: as §1

Row | Structure (SMILES) | MIC [1] | MIC [2]
1 | CNC(CC(C)C)C(=O)NC1C(=O)NC(CC(N)=O)C(=O)NC2C(=O)NC3C(=O)NC(C(=O)NC(C(=O)O)c4cc(O)cc(O)c4-c4cc3ccc4O)C(OC3CC(C)(N)C(O)C(C)O3)c3ccc(c(Cl)c3)Oc3cc2cc(c3OC2OC(CO)C(O)C(O)C2OC2CC(C)(NCc3cncc(-c4ccccc4)c3)C(O)C(C)O2)Oc2ccc(cc2Cl)C1O (stereo not drawn) [Compound 101, 3-[5-phenyl]pyridinylmethyl] | ≤ 0.06 µg/mL | 8 µg/mL (≈ 4.55 µM)
2 | CNC(CC(C)C)C(=O)NC1C(=O)NC(CC(N)=O)C(=O)NC2C(=O)NC3C(=O)NC(C(=O)NC(C(=O)O)c4cc(O)cc(O)c4-c4cc3ccc4O)C(OC3CC(C)(N)C(O)C(C)O3)c3ccc(c(Cl)c3)Oc3cc2cc(c3OC2OC(CO)C(O)C(O)C2OC2CC(C)(NCc3ccc(OCc4ccc([N+](=O)[O-])cc4)cc3)C(O)C(C)O2)Oc2ccc(cc2Cl)C1O (stereo not drawn) [Compound 131, 4-[4-nitrobenzyloxy]benzyl] | ≤ 0.06 µg/mL | 2 µg/mL (≈ 1.09 µM)
3 | CNC(CC(C)C)C(=O)NC1C(=O)NC(CC(N)=O)C(=O)NC2C(=O)NC3C(=O)NC(C(=O)NC(C(=O)O)c4cc(O)cc(O)c4-c4cc3ccc4O)C(OC3CC(C)(N)C(O)C(C)O3)c3ccc(c(Cl)c3)Oc3cc2cc(c3OC2OC(CO)C(O)C(O)C2OC2CC(C)(NCC3CCCCC3)C(O)C(C)O2)Oc2ccc(cc2Cl)C1O (stereo not drawn) [Compound 161, cyclohexylmethyl] | ≤ 0.06 µg/mL | 8 µg/mL (≈ 4.74 µM)
4 | CNC(CC(C)C)C(=O)NC1C(=O)NC(CC(N)=O)C(=O)NC2C(=O)NC3C(=O)NC(C(=O)NC(C(=O)O)c4cc(O)cc(O)c4-c4cc3ccc4O)C(OC3CC(C)(N)C(O)C(C)O3)c3ccc(c(Cl)c3)Oc3cc2cc(c3OC2OC(CO)C(O)C(O)C2OC2CC(C)(NCc3ccc4c(c3)CCCC4)C(O)C(C)O2)Oc2ccc(cc2Cl)C1O (stereo not drawn) [Compound 168] | ≤ 0.06 µg/mL | 2 µg/mL (≈ 1.15 µM)
5 | CNC(CC(C)C)C(=O)NC1C(=O)NC(CC(N)=O)C(=O)NC2C(=O)NC3C(=O)NC(C(=O)NC(C(=O)O)c4cc(O)cc(O)c4-c4cc3ccc4O)C(OC3CC(C)(N)C(O)C(C)O3)c3ccc(c(Cl)c3)Oc3cc2cc(c3OC2OC(CO)C(O)C(O)C2OC2CC(C)(NCC3=CCC(C(C)C)CC3)C(O)C(C)O2)Oc2ccc(cc2Cl)C1O (stereo not drawn) [Compound 171, 1-cyclohexenyl-4-isopropylmethyl] | ≤ 0.06 µg/mL | 8 µg/mL (≈ 4.63 µM)
6 | CNC(CC(C)C)C(=O)NC1C(=O)NC(CC(N)=O)C(=O)NC2C(=O)NC3C(=O)NC(C(=O)NC(C(=O)O)c4cc(O)cc(O)c4-c4cc3ccc4O)C(OC3CC(C)(N)C(O)C(C)O3)c3ccc(c(Cl)c3)Oc3cc2cc(c3OC2OC(CO)C(O)C(O)C2OC2CC(C)(NCCCCc3ccc(OC)cc3)C(O)C(C)O2)Oc2ccc(cc2Cl)C1O (stereo not drawn) [Compound 172, 4-[4-methoxyphenyl]butyl] | ≤ 0.06 µg/mL | 2 µg/mL (≈ 1.14 µM)
7 | CNC(CC(C)C)C(=O)NC1C(=O)NC(CC(N)=O)C(=O)NC2C(=O)NC3C(=O)NC(C(=O)NC(C(=O)O)c4cc(O)cc(O)c4-c4cc3ccc4O)C(OC3CC(C)(N)C(O)C(C)O3)c3ccc(cc3)Oc3cc2cc(c3OC2OC(CO)C(O)C(O)C2OC2CC(C)(NCc3ccc(-c4ccccc4)cc3)C(O)C(C)O2)Oc2ccc(cc2)C1O (stereo not drawn) [Compound 183, 4-phenylbenzyl] | ≤ 0.06 µg/mL | 0.5 µg/mL (≈ 0.296 µM)
8 | CNC(CC(C)C)C(=O)NC1C(=O)NC(CC(N)=O)C(=O)NC2C(=O)NC3C(=O)NC(C(=O)NC(C(=O)O)c4cc(O)cc(O)c4-c4cc3ccc4O)C(OC3CC(C)(N)C(O)C(C)O3)c3ccc(c(Cl)c3)Oc3cc2cc(c3OC2OC(CO)C(O)C(O)C2OC2CC(C)(NCC3CCC4CCCC43)C(O)C(C)O2)Oc2ccc(cc2Cl)C1O (stereo not drawn) [Compound 190, cis-bicyclo[3.3.0]octane-2-methyl] | ≤ 0.06 µg/mL | 8 µg/mL (≈ 4.67 µM)
9 | CNC(CC(C)C)C(=O)NC1C(=O)NC(CC(N)=O)C(=O)NC2C(=O)NC3C(=O)NC(C(=O)NC(C(=O)O)c4cc(O)cc(O)c4-c4cc3ccc4O)C(OC3CC(C)(N)C(O)C(C)O3)c3ccc(c(Cl)c3)Oc3cc2cc(c3OC2OC(CO)C(O)C(O)C2OC2CC(C)(NCCCCCCc3ccccc3)C(O)C(C)O2)Oc2ccc(cc2Cl)C1O (stereo not drawn) [Compound 196, 6-phenylhexyl] | ≤ 0.06 µg/mL | 1 µg/mL (≈ 0.571 µM)
